In experiment [1] the target is T1, Diacylglycerol O-acyltransferase 1 (Homo sapiens, UniProt O75907).
T1 sequence (O75907 whole entry): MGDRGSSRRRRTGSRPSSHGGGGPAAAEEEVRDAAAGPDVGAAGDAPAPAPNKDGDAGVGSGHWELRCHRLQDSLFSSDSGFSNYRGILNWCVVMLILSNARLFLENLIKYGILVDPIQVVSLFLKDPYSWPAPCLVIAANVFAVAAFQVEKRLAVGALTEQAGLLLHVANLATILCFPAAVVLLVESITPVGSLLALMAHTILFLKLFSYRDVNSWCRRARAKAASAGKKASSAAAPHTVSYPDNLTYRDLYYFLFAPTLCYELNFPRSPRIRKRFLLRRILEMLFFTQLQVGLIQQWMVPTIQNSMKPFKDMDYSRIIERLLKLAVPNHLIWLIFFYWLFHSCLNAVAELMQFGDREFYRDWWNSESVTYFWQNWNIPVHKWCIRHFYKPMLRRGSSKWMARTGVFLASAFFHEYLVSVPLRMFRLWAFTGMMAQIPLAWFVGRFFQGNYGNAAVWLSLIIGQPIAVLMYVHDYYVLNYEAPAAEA
Nature of the experiment: Inhibition of human liver flag-tagged DGAT1 expressed in baculovirus infected insect cells after 2 hrs.

The target in experiment [2] is T2, Sterol O-acyltransferase 1 (Homo sapiens, UniProt P35610).
T2 sequence (P35610 whole entry): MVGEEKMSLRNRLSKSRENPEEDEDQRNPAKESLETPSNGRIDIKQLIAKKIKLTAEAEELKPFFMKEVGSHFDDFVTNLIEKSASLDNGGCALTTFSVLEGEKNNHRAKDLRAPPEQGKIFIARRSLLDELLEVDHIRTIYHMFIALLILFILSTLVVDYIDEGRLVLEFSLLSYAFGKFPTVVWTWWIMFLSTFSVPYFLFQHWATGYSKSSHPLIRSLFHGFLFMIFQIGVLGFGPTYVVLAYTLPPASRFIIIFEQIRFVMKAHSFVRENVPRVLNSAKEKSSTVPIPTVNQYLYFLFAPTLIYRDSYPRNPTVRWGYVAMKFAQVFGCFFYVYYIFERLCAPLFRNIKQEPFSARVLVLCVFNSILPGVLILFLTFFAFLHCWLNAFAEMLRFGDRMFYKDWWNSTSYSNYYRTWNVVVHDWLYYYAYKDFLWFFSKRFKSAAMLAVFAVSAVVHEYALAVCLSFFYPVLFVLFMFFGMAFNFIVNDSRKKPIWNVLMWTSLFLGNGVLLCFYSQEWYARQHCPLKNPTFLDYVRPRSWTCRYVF
The experiment is described as follows: Inhibition of human full-length flag-tagged ACAT1 expressed in baculovirus infected insect cells after 10 mins.

Experiment [3] deals with T1, Diacylglycerol O-acyltransferase 1. The experiment is described as follows: Inhibition of DGAT1 in human Caco-2 cells after 30 mins. The class given is cell-based.

Drawing on ChEMBL document CHEMBL1255210, “Discovery of pyrrolopyridazines as novel DGAT1 inhibitors” (Bioorg Med Chem Lett, 2010), this text covers IC50 for 31 compounds.

On to `CCOC(=O)c1c(C(=O)OCC)c2c(-c3ccccc3)cc(N3CCOCC3)nn2c1-c1ccc(-c2ccccc2)cc1`, for which the values for the IC50 in experiment [1] and in experiment [2] were 250 nM and less than 300 nM, respectively. Turning to `CCOC(=O)c1c(C(=O)OCC)c2c(-c3ccccc3)cc(N3CCOCC3)nn2c1-c1ccc(OCc2ccccc2)cc1`, the IC50 in experiment [1] was 60 nM; in experiment [2] it was less than 100 nM.

For the compound `CCOC(=O)c1c(C(=O)OCC)c2c(-c3ccccc3)cc(N3CCOCC3)nn2c1-c1ccc(N)cc1`, the figures for the IC50 in experiment [1] and in experiment [2] were 630 nM and 1050 nM, respectively. Regarding `CCCc1c(C(=O)OCC)c(C(=O)OCC)c2c(-c3ccccc3)cc(N3C[C@@H](C)O[C@@H](C)C3)nn12`, in experiment [1], the IC50 is greater than 3000 nM. Consider `CCCc1c(C(=O)OCC)c(C(=O)OCC)c2c(-c3ccccc3)cc(N3CCC3)nn12`, for which the values for the IC50 in experiment [1] and in experiment [2] were 1360 nM and 1490 nM, respectively.

Take `CCCc1c(C(=O)OCC)c(C(=O)OCC)c2c(-c3ccccc3)cc(N3CCCC3)nn12`: the IC50 in experiment [1] is 120 nM; in experiment [2] it was 1300 nM.

For `CCCc1c(-c2nc(CCO)no2)c(C(=O)OCC)c2c(-c3ccccc3)cc(N3CCOCC3)nn12`, the half-maximal inhibitory concentration (IC50) in experiment [1] is 180 nM; in experiment [2], 1050 nM; in experiment [3] it was 260 nM. Take `CCCc1c(C(=O)OCC)c(C(=O)OCC)c2c(-c3ccccc3)cc(N3CCOCC3)nn12`: the IC50 in experiment [1] is 120 nM; in experiment [2], 1300 nM. `CCOC(=O)c1cn2nc(N3CCOCC3)cc(-c3ccccc3)c2c1C(=O)OCC` displayed an IC50 in experiment [1] greater than 3000 nM. On to `CCCc1c(C(=O)OCC)c(C(=O)OCC)c2c(-c3ccccc3F)cc(N3CCOCC3)nn12`, for which the results for the IC50 in experiment [1] and in experiment [2] were 570 nM and 1490 nM, respectively. As to `CCOC(=O)c1c(C(=O)OCC)c2c(-c3ccccc3)cc(N3CCOCC3)nn2c1C`, the IC50 in experiment [1] worked out at 520 nM; in experiment [2] it was 2590 nM.

Regarding `CCOC(=O)c1c(C(=O)OCC)c2c(-c3ccccc3)cc(N3CCOCC3)nn2c1CC`, the figures for the IC50 in experiment [1] and in experiment [2] were 240 nM and 2170 nM, respectively.

With `CCCc1cc(N2CCOCC2)nn2c(CCC)c(C(=O)OCC)c(C(=O)OCC)c12`, the IC50 in experiment [1] was greater than 3000 nM. In the case of `C=CCc1c(C(=O)OCC)c(C(=O)OCC)c2c(-c3ccccc3)cc(N3CCOCC3)nn12`, the IC50 in experiment [1] is 75 nM; in experiment [2], 1400 nM. In experiment [1], `CCCc1c(C(=O)OCC)c(C(=O)OCC)c2c(C(C)(C)C)cc(N3CCOCC3)nn12` yielded an IC50 greater than 3000 nM. For `CCCc1c(C(=O)OCC)c(C(=O)OCC)c2c(C3CCC3)cc(N3CCOCC3)nn12`, in experiment [1], the 50% inhibitory concentration (IC50) was greater than 3000 nM. With `CCCCc1c(C(=O)OCC)c(C(=O)OCC)c2c(-c3ccccc3)cc(N3CCOCC3)nn12`, the IC50 in experiment [1] is 160 nM; in experiment [2] it was less than 300 nM.

On to `CCCc1c(C(=O)OCC)c(C(=O)OCC)c2c(C3CCCC3)cc(N3CCOCC3)nn12`, for which the IC50 in experiment [1] is greater than 3000 nM. On the same count and under the same terms, next, `CCCc1c(C(=O)OCC)c(C(=O)OCC)c2c(C3CCCCC3)cc(N3CCOCC3)nn12`: greater than 3000 nM. `CCOC(=O)c1c(C(=O)OCC)c2c(-c3ccccc3)cc(N3CCOCC3)nn2c1C1CC1`: the figures for the IC50 in experiment [1] and in experiment [2] were 620 nM and 3250 nM, respectively. As for `CCCc1c(-c2nc(CC)no2)c(C(=O)OCC)c2c(-c3ccccc3)cc(N3CCOCC3)nn12`, the figures for the IC50 in experiment [1] and in experiment [2] were 110 nM and less than 1000 nM, respectively.

In experiment [1], `CCOC(=O)c1c(C(=O)OCC)c2c(-c3ccccc3)cc(N3CCOCC3)nn2c1CCCO` returned an IC50 greater than 1000 nM. Take `CCOC(=O)c1c(C(=O)OCC)c2c(-c3ccccc3)cc(N3CCOCC3)nn2c1COC`: the half-inhibitory concentration (IC50) in experiment [1] was determined as 240 nM; in experiment [2], 8750 nM. For `CCCc1noc(-c2c(C(=O)OCC)c3c(-c4ccccc4)cc(N4CCOCC4)nn3c2CCC)n1` the same measures were 65 nM and 260 nM. For the compound `CCCc1c(-c2nc(C(C)C)no2)c(C(=O)OCC)c2c(-c3ccccc3)cc(N3CCOCC3)nn12`, the IC50 in experiment [1] is 57 nM; in experiment [2], less than 1000 nM; in experiment [3] it was 51 nM.

For the compound `CCOC(=O)c1c(C(=O)OCC)c2c(-c3ccccc3)cc(N3CCOCC3)nn2c1CCCOC`, the IC50 in experiment [1] stood at 270 nM; in experiment [2] it was 2560 nM.

`CCOC(=O)c1c(C(=O)OCC)c2c(-c3ccccc3)cc(N3CCOCC3)nn2c1CCCN(C)C` returned an IC50 in experiment [1] greater than 1000 nM. On to `CCCCc1noc(-c2c(C(=O)OCC)c3c(-c4ccccc4)cc(N4CCOCC4)nn3c2CCC)n1`, for which the IC50 was 73 nM in experiment [1], less than 1000 nM in experiment [2] and 69 nM in experiment [3]. On to `CCCCCc1noc(-c2c(C(=O)OCC)c3c(-c4ccccc4)cc(N4CCOCC4)nn3c2CCC)n1`, for which the IC50 in experiment [1] was 110 nM; in experiment [2], less than 1000 nM. With `CCCc1c(-c2nc(-c3ccccc3)no2)c(C(=O)OCC)c2c(-c3ccccc3)cc(N3CCOCC3)nn12`, the IC50 in experiment [1] worked out at 180 nM; in experiment [2], 1590 nM; in experiment [3], 200 nM.

As to `CCOC(=O)c1c(C(=O)OCC)c2c(-c3ccccc3)cc(N3CCOCC3)nn2c1-c1ccc(O)cc1`, the values for the IC50 in experiment [1] and in experiment [2] were 570 nM and 1290 nM, respectively.

A word on the IC50: it is the concentration at which inhibition is half-maximal. Read a high IC50 as a need for much substance.
